Assay results taken from patent US9902701B2, “Pyridazones and triazinones for treatment and prophylaxis of hepatitis B virus infection” (priority 2014, dated 2018).

Test system: HBsAg
Experiment: HBsAg assay: chemiluminescence immunoassay (CLIA) of secreted HBsAg in supernatant of HepG2.2.15 cells
Type: cell-based, HBV
Details: Hepatitis B virus
Protocol: HepG2.2.15 cells (Acs et al. Proc Natl Acad Sci USA, 84, (1987), 4641-4), a constitutively HBV-expressing cell line were cultured in DMEM+Glutamax-I medium (Invitrogen, Carlsbad, Calif., USA), supplemented with 10% fetal bovine serum (Invitrogen) and G418 (Invitrogen) at a final concentration of 200 mg/L and maintained in 5% CO2 at 37° C.
HepG2.2.15 cells were seeded in duplicate into white, 96-well plates at 1.5×10^4 cells/well. The cells were treated with a three-fold serial dilution series of the compounds in DMSO. The final DMSO concentration in all wells was 1% and DMSO was used as no drug control.
The HBsAg chemiluminescence immunoassay (CLIA) kit (Autobio Diagnostics Co., Zhengzhou, China, Catalog number: CL0310-2) was used to measure the levels of secreted HBV antigens semi-quantitatively. For the detection 50 μL/well culture supernatant was used and HBsAg was quantified using HBsAg chemiluminescence immunoassay (CLIA) kit (Autobio Diagnostics Co., Zhengzhou, China, Catalog number: CL0310-2), 50 μL of the supernatant was transferred to the CLIA assay plate and 50 μL of enzyme conjugate reagent was added into each well. The plates were sealed and gently agitated for 1 hour at room temperature. The supernatant-enzyme-mixture was discarded and wells were washed 6 times with 300 μL of PBS. The residual liquid was removed by plating the CLIA plate […] on absorbent tissue paper. 25 μL of substrates A and B were added to each well. Luminance was measured using a luminometer (Mithras LB 940 Multimode Microplate Reader) after 10 minutes incubation. Dose-response curves were generated and the IC50 value was extrapolated by using the E-WorkBook Suite (ID Business Solutions Ltd., Guildford, UK). The IC50 was defined as the compound concentration (or conditioned media log dilution) at which HBsAg secretion was reduced by 50% compared to the no drug control.

Q: For `CN(C(=O)CN1N=C(c2ccc(F)c(F)c2)CCC1=O)c1ccc(C(F)(F)F)cc1` [Example 1-53, 2-[3-(3,4-Difluorophenyl)-6-oxo-4,5-dihydropyridazin-1-yl]-N-methyl-N-[4-(trifluoromethyl)phenyl]acetamide], which IC50 is on record?
A: Its IC50 is 860 nM.

Q: `Cc1cc(Cl)ccc1C1=NN(CC(=O)N(C)c2cccc(Cl)c2)C(=O)CC1` [Example 1-27, 2-[3-(4-Chloro-2-methyl-phenyl)-6-oxo-4,5-dihydropyridazin-1-yl]-N-(3-chlorophenyl)-N-methyl-acetamide] was tested. Which IC50 did it give?
A: The IC50 was 814 nM.

Q: With `CN(C(=O)CN1N=C(c2ccc(F)cc2F)CCC1=O)c1cccc(C(F)(F)F)c1` [Example 1-31, 2-[3-(2,4-Difluorophenyl)-6-oxo-4,5-dihydropyridazin-1-yl]-N-methyl-N-[3-(trifluoromethyl)phenyl]acetamide] as the molecule, how does the IC50 read?
A: The IC50 was 830 nM.

Q: How did the IC50 turn out when `CN(C(=O)Cn1nc(-c2ccc(Cl)cc2)cnc1=O)c1ccc(Cl)cc1` [Example 3-2, N-(4-Chlorophenyl)-2-[6-(4-chlorophenyl)-3-oxo-1,2,4-triazin-2-yl]-N-methyl-acetamide] was run?
A: The IC50 was 6230 nM.

Q: Which IC50 does the source give for `CN(C(=O)CN1N=C(c2ccc(Cl)cc2)CNC1=O)c1ccc(C(F)(F)F)cc1` [Example 3-1, 2-[6-(4-Chlorophenyl)-3-oxo-4,5-dihydro-1,2,4-triazin-2-yl]-N-methyl-N-[4-(trifluoromethyl)phenyl]acetamide] here?
A: The IC50 was 10300 nM.

Q: For `CN(C(=O)Cn1nc(-c2ccc(Cl)cc2F)ccc1=O)c1ccc(C(F)(F)F)cc1` [Example 2-3, 2-[3-(4-Chloro-2-fluoro-phenyl)-6-oxo-pyridazin-1-yl]-N-methyl-N-[4-(trifluoromethyl)phenyl]acetamide], which IC50 is on record?
A: Its IC50 is 1500 nM.

Q: With `Cc1cc(C2=NN(CC(=O)N(C)c3ccc(F)c(C(F)(F)F)c3)C(=O)CC2)ccc1F` [Example 1-37, 2-[3-(4-Fluoro-3-methyl-phenyl)-6-oxo-4,5-dihydropyridazin-1-yl]-N-[4-fluoro-3-(trifluoromethyl)phenyl]-N-methyl-acetamide] as the molecule, how does the IC50 read?
A: Its IC50 is 3140 nM.

Q: `CN(C(=O)CN1N=C(c2ccc(Cl)c(F)c2)CCC1=O)c1ccc(F)cc1` [Example 1-22, 2-[3-(4-Chloro-3-fluoro-phenyl)-6-oxo-4,5-dihydropyridazin-1-yl]-N-(4-fluorophenyl)-N-methyl-acetamide] was tested. Which IC50 did it give?
A: Its IC50 is 940 nM.

Q: `CN(C(=O)CN1N=C(c2ccc(Cl)c(Cl)c2)CCC1=O)c1ccc(C(F)(F)F)cc1` [Example 1-45, 2-[3-(3,4-Dichlorophenyl)-6-oxo-4,5-dihydropyridazin-1-yl]-N-methyl-N-[4-(trifluoromethyl)phenyl]acetamide] was tested. Which IC50 did it give?
A: Its IC50 is 230 nM.

Q: Which IC50 does the source give for `Cc1cc(Cl)ccc1C1=NN(CC(=O)N(C)c2ccc(Cl)cc2)C(=O)CC1` [Example 1-26, 2-[3-(4-Chloro-2-methylphenyl)-6-oxo-4,5-dihydropyridazin-1-yl]-N-(4-chlorophenyl)-N-methyl-acetamide] here?
A: Its IC50 is 1880 nM.

Q: For `CN(C(=O)CN1N=C(c2ccc(Cl)cc2)CCC1=O)c1ccc(Cl)c(Cl)c1` [Example 1-8, 2-[3-(4-Chlorophenyl)-6-oxo-4,5-dihydropyridazin-1-yl]-N-(3,4-dichlorophenyl)-N-methyl-acetamide], which IC50 is on record?
A: The IC50 was 246 nM.

Q: `CCCCCN(C)C(=O)c1ccc(N(C)C(=O)CN2N=C(c3ccc(Cl)cc3)CCC2=O)cc1` [Example 1-14, 4-[[2-[3-(4-Chlorophenyl)-6-oxo-4,5-dihydropyridazin-1-yl]acetyl]-methyl-amino]-N-methyl-N-pentyl-benzamide] was tested. Which IC50 did it give?
A: The IC50 was 3020 nM.

Q: How did the IC50 turn out when `CN(C(=O)CN1N=C(c2ccc(F)cc2F)CCC1=O)c1ccc(Cl)cc1` [Example 1-33, N-(4-Chlorophenyl)-2-[3-(2,4-difluorophenyl)-6-oxo-4,5-dihydropyridazin-1-yl]-N-methyl-acetamide] was run?
A: Its IC50 is 850 nM.

Q: How did the IC50 turn out when `CN(C(=O)CN1N=C(c2ccc(Cl)cc2Cl)CCC1=O)c1ccc(Cl)cc1` [Example 1-54, N-(4-Chlorophenyl)-2-[3-(2,4-dichlorophenyl)-6-oxo-4,5-dihydropyridazin-1-yl]-N-methyl-acetamide] was run?
A: The IC50 was 1930 nM.
